Consider four molecules from US20150050240A1, “TREATMENT OF FIBROSIS” (NOVARTIS AG, priority 2012, published 2015).

The test system of data set [1] is lung fibroblasts from IPF patients. As to conditions: cited from earlier work.
The conditions of data set [2]: cited from earlier work.
The test system of data set [3] is primary human lung fibroblasts (HLFs). The experiment in a line: Fibroblast-to-myofibroblast transition (FMT), western blot for SMA. Format: cell-based. How it is done: Primary human lung fibroblasts (Promocell) were maintained in DMEM supplemented with 10% heat-inactivated FBS, 1 mM Na-pyruvate and 1% Penicillin/Streptomycin and trypsinised every 4 days. Sub-confluent HLFs were electroporated via nucleofection (Amaxa electroporation system) with siRNAs.
(§1) HLFs, IPF donor cells, A549 cells lysates or lung tissue lysates were prepared in RIPA buffer. The patient lung biopsies study utilized biological specimens and data provided by the Lung Tissue Research Consortium (LTRC) supported by the National Heart, Lung, and Blood Institute (NHLBI). For Western blots, 1:1000-diluted mouse-anti-N-Cadherin (BD Biosciences), rabbit-anti-OB-Cadherin (Santa Cruz), mouse-anti-SMA (Sigma), mouse-anti-vimetin (DACO), mouse-anti-E-Cadherin (Abram), rabbit-anti-β-catenin (Cell Signaling Technology), anti-rabbit-p-[…]-β-catenin (Cell Signaling Technology), rabbit-anti-β-actin (Santa Cruz) and mouse-anti-GAPDH (Santa Cruz) were used in combination with HRP-conjugated secondary antibodies (GE Healthcare). Western blots were developed using an ECL system (GE Healthcare). Quantification of the intensity of the bands was performed using NIH ImageJ software.
To assess functional responses, non-transfected HLFs or HLFs transfected with siRNAs were plated in full growth medium and left to grow overnight, starved for 24 h in serum-free medium and stimulated with different growth factors for a further 24 h. For FMT assessment, the HLF cells were stimulated with 5 ng/ml TGFβ (R&D Systems) or 10 μg/ml human N-Cadherin-Fc (R&D Systems), for collagen secretion—with 1 ng/ml TGFβ, for proliferation—with FBS, 10 ng/ml PDGF-BB (R&D Systems) or 10 ng/ml FGF-2 (R&D Systems) and for migration—with 10 μg/ml human N-Cadherin-Fc (R&D Systems) or human OB-Cadherin-Fc (R&D Systems). […] The level of FMT was evaluated by western blot for SMA. Collagen secretion was measured by Sircol collagen assay (Biocolor Life Science). Proliferation assay was performed using the DELFIA system (PerkinElmer), and migration was assessed with the Oris System (Platypus Technology).
For orientation: Immunoblotting shows a protein as a band on a membrane.

Data set [4] deals with β-catenin. The experiment in a line: Western blots for p-Ser552 β-catenin and total β-catenin from HLFs. Type of data set: cell-based, human. As to conditions: HLFs stimulated with TGFβ; FIG. 4A. Here is the method:
as §1
To assess the regulation of β-catenin in response to a fibrotic stimulus in HLFs, cells were stimulated with TGFβ and the expression levels and phosphorylation state of β-catenin were assessed by Western blot (FIG. 4A). There was no difference in the expression levels of total β-catenin in TGFβ-stimulated cells. However, when the cell lysates were probed with a phospho-specific β-catenin antibody, we found an increase in the phosphorylation of Ser552 upon TGFβ treatment. […]

Data set [5] has as its system N-Cadherin. The experiment in a line: N-Cadherin expression in HLFs (RT-PCR, western blot). Format: cell-based, human. As to conditions: TGFβ treatment, low and high cell density; FIG. 1A. How it is done: (§2) Total RNA was extracted from HLFs, transcribed into cDNA and used for RT-PCR. Validated Taqman N-Cadherin, OB-Cadherin, vimentin or E-Cadherin primers and probes were purchased from Applied Biosystems.
(§3) Small interfering RNAs against N-Cadehrin and OB-Cadherin were purchased from Applied Biosystems. Knockdown efficiencies were tested by using real-time RT-PCR and confirmed to be 95% at the time of stimulation in the different functional assays.
as §1

For data set [6], the system named is OB-Cadherin. Nature of the data set: OB-Cadherin expression in HLFs (RT-PCR, western blot). As to conditions: TGFβ treatment of HLFs; FIG. 1A. Type of data set: cell-based, human. How it is done:
as §2, §3, §1

For data set [7] the following is noted: cited from earlier work. The source holds these as a separate data set.
For data set [8], the system named is primary human lung fibroblasts (HLFs). Nature of the data set: HLF migration, in vitro wound closure assay (Oris System). Type of data set: cell-based. As to conditions: 10 μg/ml N-Cadherin-Fc; FIG. 3A. Here is the method: To assess functional responses, non-transfected HLFs or HLFs transfected with siRNAs were plated in full growth medium and left to grow overnight, starved for 24 h in serum-free medium and stimulated with different growth factors for a further 24 h. For FMT assessment, the HLF cells were stimulated with 5 ng/ml TGFβ (R&D Systems) or 10 μg/ml human N-Cadherin-Fc (R&D Systems), for collagen secretion—with 1 ng/ml TGFβ, for proliferation—with FBS, 10 ng/ml PDGF-BB (R&D Systems) or 10 ng/ml FGF-2 (R&D Systems) and for migration—with 10 μg/ml human N-Cadherin-Fc (R&D Systems) or human OB-Cadherin-Fc (R&D Systems). In the loss of function FMT experiment, 50 μg/ml N-Cadherin neutralizing antibody (clone GC-4, Sigma) was used. The level of FMT was evaluated by western blot for SMA. Collagen secretion was measured by Sircol collagen assay (Biocolor Life Science). Proliferation assay was performed using the DELFIA system (PerkinElmer), and migration was assessed with the Oris System (Platypus Technology).
Increased migration is a hallmark of myofibroblasts and is thought to contribute to the pathology of IPF. Therefore, we investigated the effects of N-Cadherin gain- and loss-of function on the migratory potential of HLFs. We performed an in vitro wound closure assay with cells treated with the recombinant N-Cadherin-Fc chimera or with N-Cadherin siRNA.

Data set [9] deals with A549 epithelial alveolar type II cells. The experiment in a line: Epithelial-to-mesenchymal transition (EMT) in A549 cells (RT-PCR, western blot, E-Cadherin immunocytochemistry). Type of data set: cell-based, human. As to conditions: recombinant N-Cadherin-Fc, immunocytochemistry for E-Cadherin. Here is the method:
A549 epithelial alveolar type II cells (ATCC) were maintained in DMEM supplemented with 10% heat-inactivated FBS and 1% Penicillin/Streptomycin and trypsinised every 4 days.
For EMT assessment, A549 cells were simulated with 5 ng/ml TGFβ (R&D Systems), a combination of 5 ng/ml TGFβ (R&D Systems) and 2.5 ng/ml IL-1β (R&D Systems) or N-Cadherin-Fc (R&D Systems). The level of EMT was evaluated either by RT-PCR and Western blot for vimentin and E-Cadheirn or by immunocytochemistry for E-Cadherin. In the loss of function EMT experiment, N-Cadherin neutralizing tool antibody or IgG isotype control were used in the presence of 18 μg/ml N-cadheirn-Fc (R&D Systems).

The mark [10] stands for this setting: phase II trial with IPF patients.
Where [11] appears, read: more recent clinical trial, discontinued in 2007.

In the case of `Cc1ccc(=O)n(-c2ccccc2)c1` [Pirfenidone], in data set [1], the collagen synthesis result is “reduces collagen synthesis” and the “mitogenic effects of pro-fibrotic cytokines” value was “blocks mitogenic effects”. Moreover, in [2] (setting [10]), the chest radiographs result is “did not improve”, the pulmonary functional tests result was “stabilized or improved in some patients”, the side effects entry is “no severe side effects” and the survival rates entry is reported as “improved”. In data set [2] (phase III clinical trial, IPF patients), the lung function entry is reported as “might positively affect lung function”.

Regarding “TGFβ: TGFβ (R&D Systems), pro-fibrotic stimulus used to induce FMT”, the SMA expression entry in data set [3] (TGFβ stimulation, low and high cell density) is listed as “marked increase”. Also, in [4], the “expression levels of total β-catenin” value is “no difference” and the “phosphorylation of Ser552 of β-catenin” value is on record as “increase”. For the same molecule, the N-Cadherin expression result in data set [5] is given as “upregulated”. The OB-Cadherin expression result in data set [6] is “upregulated”.

Take interferon: the clinical improvement entry in [7] (IPF patients refractory to corticosteroid or immunosuppressive therapy) was “showed no improvement”. Moreover, in data set [7] (setting [11]), the clinical trial outcome is “ineffectiveness” and the “patients death rates compared with placebo” value is reported as “slightly increased”.

B1: N-Cadherin-Fc: human N-Cadherin-Fc fusion protein (R&D Systems) that mimics N-Cadherin homophilic interactions and activates N-Cadherin signalling (protein)
chain: DWVIPPINLPENSRGPFPQELVRIRSDRDKNLSLRYSVTGPGADQPPTGIFIINPISGQLSVTKPLDREQIARFHLRAHAVDINGNQVENPIDIVINVIDMNDNRPEFLHQVWNGTVPEGSKPGTYVMTVTAIDADDPNALNGMLRYRIVSQAPSTPSPNMFTINNETGDIITVAAGLDREKVQQYTLIIQATDMEGNPTYGLSNTATAVITVTDVNDNPPEFTAMTFYGEVPENRVDIIVANLTVTDKDQPHTPAWNAVYRISGGDPTGRFAIQTDPNSNDGLVTVVKPIDFETNRMFVLTVAAENQVPLAKGIQHPPQSTATVSVTVIDVNENPYFAPNPKIIRQEEGLHAGTMLTTFTAQDPDRYMQQNIRYTKLSDPANWLKIDPVNGQITTIAVLDRESPNVKNNIYNATFLASDNGIPPMSGTGTLQIYLLDINDNAPQVLPQEAETCETPDPNSINITALDYDIDPNAGPFAFDLPLSPVTIKRNWTITRLNGDFAQLNLKIKFLEAGIYEVPIIITDSGNPPKSNISILRVKVCQCDSNGDCTDVDRIVGAGLGTGA
modifications: left off: a dimerising Fc or GST
On to B1, for which, in [3] (HLFs treated with 10 μg/ml N-Cadherin-Fc for 24 h, FIG. 2A), the SMA expression result is “significant increase”. Also, the “additive or synergistic effect on SMA expression” value in data set [3] (combination of TGFβ and N-Cadherin-Fc, 24 h) is given as “did not observe an additive or synergistic effect”. For the same molecule, the “HLF migration into the wound” value in data set [8] is “significant increase”. Also, in data set [9], the “EMT, measured by decreased E-Cadherin signal” value is listed as “significant EMT”.
